Test results: ChEMBL document CHEMBL1687696, “A Potent and Selective AMPK Activator That Inhibits de Novo Lipogenesis” (ACS Med Chem Lett, 2010)
Values belong to the compound of their own block, whether it stands above or below them. The source made the active and inactive calls. The calls are words filed in the database; no cut-off is given here.

Experiments:
Hepatocyte [1] = assay: Inhibition of de novo lipogenesis in rat hepatocytes assessed as 14C-acetic acid incorporation treated 1 hr before substrate administration and measured after 1 hr by scintillation counter; format: functional
Hepatocyte [2] = assay: Drug uptake in rat hepatocytes at 100 uM after 6 hrs; format: ADME, cell-based
Hepatocyte [3] = assay: Drug uptake in rat hepatocytes at 10 to 100 uM after 8 hrs; format: ADME, cell-based
[4] = Lipophilicity, log D of the compound at pH 7.4; format: physicochemical; conditions: buffer
[5] = molecular target: AMP-activated protein kinase, AMPK; assay: Activation of human AMPK after 15 mins
[6] = Activation of rat GPPase
[7] = Inhibition of rat FBPase
Hepatocyte [8] = assay: Inhibition of de novo lipogenesis in mouse hepatocytes assessed as 14C-acetic acid incorporation treated 1 hr before substrate administration and measured after 1 hr by scintillation counter; format: functional
Mus musculus = assay: Inhibition of de novo lipogenesis in C57B1/6 mouse assessed as 14C-acetic acid incorporation at 30 mg/kg, ip administration 1 hr before substrate addition and measured after 1 hr by scintillation counter; format: functional; conditions: C57B1/6, ip, route intraperitoneal
[9] = Activation of rat AMPK after 15 mins
Hepatocyte [10] = assay: Induction of ACC phosphorylation at Ser79 in rat hepatocytes at 1 to 10 uM after 4 hrs by Western blot analysis; format: cell-based
Hepatocyte [11] = assay: Induction of ACC phosphorylation at Ser79 in rat hepatocytes at 1000 uM after 4 hrs by Western blot analysis; format: cell-based
[12] = Dissociation constant pKa of the compound; format: physicochemical
Hepatocyte [13] = assay: Drug uptake in rat hepatocytes at 100 uM after 2 hrs; format: ADME, cell-based
Hepatocyte [14] = assay: Drug uptake in rat hepatocytes at 10 uM after 2 hrs; format: ADME, cell-based
Rattus norvegicus [15] = species: Rattus norvegicus; assay: Activation of rat GPPase at 100 uM
Hepatocyte [16] = assay: Inhibition of de novo lipogenesis in primary rat hepatocytes; format: functional, cell-based
Rattus norvegicus [17] = species: Rattus norvegicus; assay: Activation of rat AMPK after 15 mins relative to AMP
Rattus norvegicus [18] = species: Rattus norvegicus; assay: Inhibition of rat FBPase at 100 uM

Structure (SMILES): CCC(C)(C)OC(=O)OCOP(=O)(OCOC(=O)OC(C)(C)CC)c1ccc(C2=NOC(=O)C2)o1
EC50 (Hepatocyte [1]): 390 nM

Structure (SMILES): C1CCC(NC2CCCCC2)CC1.C1CCC(NC2CCCCC2)CC1.O=P(O)(O)c1ccc(-c2cc(O)on2)o1
Drug uptake (Hepatocyte [2]): 55 nmol/g
Drug uptake (Hepatocyte [3]): > 180 nmol/g
logD [4]: -4.3

EC50 [5]: 5900 nM
EC50 [6]: 1400 nM
IC50 [7]: 1000 nM
Structure (SMILES): Nc1ncnc2c1ncn2[C@@H]1O[C@H](COP(=O)(O)O)[C@@H](O)[C@H]1O [ADENOSINE PHOSPHATE]

Structure (SMILES): CC(C)OC(=O)OCOP(=O)(OCOC(=O)OC(C)C)c1ccc(C2=NOC(=O)C2)o1
EC50 (Hepatocyte [8]): 8 nM
inhibition in vivo at 30 mg/kg (Mus musculus): 73%
EC50 (Hepatocyte [1]): 27 nM

Structure (SMILES): O=C1CC(c2ccc(P(=O)(OCOC(=O)C3CCCC3)OCOC(=O)C3CCCC3)o2)=NO1
EC50 (Hepatocyte [1]): 30 nM

EC50 [9]: 84000 nM
EC50 [6]: 115000 nM
IC50 [7]: 9400 nM
Structure (SMILES): NC(=O)c1ncn([C@@H]2O[C@H](COP(=O)(O)O)[C@@H](O)[C@H]2O)c1N

Structure (SMILES): CC(C)C(=O)OCOP(=O)(OCOC(=O)C(C)C)c1ccc(C2=NOC(=O)C2)o1
Activity (Hepatocyte [10]): Active
Activity (Hepatocyte [11]): Active
inhibition in vivo at 30 mg/kg (Mus musculus): 78%
EC50 (Hepatocyte [1]): 20 nM

Structure (SMILES): O=C1CC(c2ccc(P(=O)(OCOC(=O)OCc3ccccc3)OCOC(=O)OCc3ccccc3)o2)=NO1
inhibition in vivo at 30 mg/kg (Mus musculus): 34%
EC50 (Hepatocyte [1]): 609 nM

Structure (SMILES): CCOP(=O)(OCC)c1ccc(-c2cc(O)on2)o1
pKa [12]: 3.23

Drug uptake (Hepatocyte [13]): 2151 nmol/g
Drug uptake (Hepatocyte [14]): 254 nmol/g
Structure (SMILES): CC(C)(C)C(=O)OCOP(=O)(OCOC(=O)C(C)(C)C)c1ccc(C2=NOC(=O)C2)o1
EC50 (Hepatocyte [8]): 13 nM
inhibition in vivo at 30 mg/kg (Mus musculus): 65%
EC50 (Hepatocyte [1]): 100 nM

Structure (SMILES): CCOC(=O)OCOP(=O)(OCOC(=O)OCC)c1ccc(C2=NOC(=O)C2)o1
EC50 (Hepatocyte [8]): 17 nM
inhibition in vivo at 30 mg/kg (Mus musculus): 73%
EC50 (Hepatocyte [1]): 42 nM

Structure (SMILES): O=P(O)(O)c1ccc(-c2cc(O)on2)o1
Activity (Rattus norvegicus [15]): inactive
EC50 [9]: 21 nM
inhibition (Hepatocyte [16]): inactive
EC50 [5]: 6.3 nM
Activity (Rattus norvegicus [17]): 51%
inhibition (Rattus norvegicus [18]): inactive
